tested on: C57B16 mice on a high fat diet (DIO); assay: GPR120 DIO mice OGTT screening; assay type: in vivo, mouse; design: DIO Lowering Glucose AUC (−30 to 90) @ 10 mg/kg: unit not given here; conditions: 10 mg/kg dosed 30 min before PO glucose, change from vehicle
Method: 18-22 week old, C57B16 mice on a high fat diet (60% HFD) for 12-16 weeks (ave. body weight ˜37-41 g) were fasted for 6 hr, with removal of food occurring at 7 am on the morning of the study. The animals were sorted into treatment groups the day before the study by body weight. Animals outside the bounds of ˜30-50 g were left out of the study. The animals had been handled and shammed a total of 5-8 days (1-3 days immediately prior to the study). Glucose (in 1 mL syringes) was drawn up the morning of the study. Test compounds were kept spinning and were only drawn into 1 ml syringes prior to study commencement. Animals were bled via tail snip to determine basal glucose levels prior to dosing of treatments. An Ascensia BREEZE Blood Glucose Monitoring System by Bayer was used for determining glucose levels.
Animals were moved into the testing room at ˜9-11 am, to yield them time to acclimate. The bleeds and dosing started at approximately 1 pm in 30-second intervals per animal. All groups were dosed 30 minutes prior to glucose administration at a dose volume of 10 ml/kg (the dose volume was calculated separately for each individual animal). Test compounds were administered at one or more of the following dosages: 0.1 mg/kg, 0.3 mg/kg, 1 mg/kg, 3 mg/kg and 10 mg/kg.
Thirty minutes after the first dose (with test compound) animals were bled again for a second baseline, or T=0, and immediately dosed with glucose (20% solution; TEKNOVA, 250 ml sterile bottle w/catalogue number G0525) via a PO injection. The exact dose volume for glucose was also calculated separately for each individual animal.
Blood glucose was measured at 15, 30, 45, 60, and 90 minutes post-glucose administration via the snipped tail. If an animal reached a value of “HI”, the upper limit of the glucometer (600 mg/dl) was substituted as the blood glucose value and the study was analyzed as normal with no exclusions. If 50% or more of any treatment group reaches a “HI” value at least once, the study was considered invalid and repeated. Glucose values were typed into an EXCEL spreadsheet where they were used to calculate glucose AUC and delta AUC post-compound and post-glucose. The glucose excursion curves and the different versions of the AUC's were graphed in GraphPad Prism 5.
Note: All statistics completed in this study were completed using the statistical software package GraphPad Prism 5. Standard procedures for analyzing data sets from screening GPR120 compounds in DIO mouse OGTT's were as listed here below. In addition to the statistics that were run using GraphPad Prism 5, Microsoft Excel was used to calculate the percent changes in AUC from vehicle groups as detailed below.
Change from −30 to 0 BSLN Glucose, Raw Glucose AUC −30 to 90 min, Delta Glucose AUC −30 to 90 min, Raw Glucose AUC 0 to 90 min, Delta Glucose AUC 0 to 90 min were analyzed using Column Statistics Analysis, with mean values used to calculate % change from the vehicle mean group, as well as mean, SEM and/or % change from vehicle, where appropriate; and using One-Way ANOVA w/a Tukey Post-Test (Comparing All Pairs of Columns) with each treatment group examined to see if it was statistically significant compared to vehicle (*=P<0.05, **=P<0.01, ***=P<0.001).
Representative compounds of the present invention were tested according to the procedure as described in Biological Example 3, with results as listed in Table 2, below. Where a compound was tested more than once, each result is listed individually.

| Compound | DIO Lowering Glucose AUC (−30 to 90) @ 10 mg/kg |
| --- | --- |
| 3-(4-[[3-(4-ethylphenyl)-5-(trifluoromethyl)-1,2-thiazol-4-yl]methoxy]-3,5-difluorophenyl)propanoic acid [Cpd 70] | −0.5 |
| Cc1ccc(-c2nsc(C(F)(F)F)c2COc2c(F)cc(CCC(=O)O)cc2F)c(F)c1 [Cpd 65, 3-(3,5-difluoro-4-[[3-(2-fluoro-4-methylphenyl)-5-(trifluoromethyl)-1,2-thiazol-4-yl]methoxy]phenyl)propanoic acid] | −0.61 |
| O=C(O)CCc1cc(F)c(OCc2c(-c3ccc(Cl)c(F)c3)nsc2C(F)(F)F)c(F)c1 [Cpd 67, 3-(4-((3-(4-chloro-3-fluorophenyl)-5-(trifluoromethyl)isothiazol-4-yl)methoxy)-3,5-difluorophenyl)propanoic acid] | −0.78 |
| O=C(O)CCc1cc(F)c(OCc2c(C3CCCC3)nsc2C(F)(F)F)c(F)c1 [Cpd 71, 3-(4-[[3-cyclopentyl-5-(trifluoromethyl)-1,2-thiazol-4-yl]methoxy]-3,5-difluorophenyl)propanoic acid] | −0.52 |
| CCc1ccc(-c2nsc(C(F)(F)F)c2COc2ccc(CCC(=O)O)c(F)c2F)cc1 [Cpd 73, 3-(4-((3-(4-ethylphenyl)-5-(trifluoromethyl)isothiazol-4-yl)methoxy)-2,3-difluorophenyl)propanoic acid] | −0.51 |
| O=C(O)CCc1cc(F)c(OCc2c(-c3ccc(Cl)cc3F)nsc2C(F)(F)F)c(F)c1 [Cpd 74, 3-(4-((3-(4-chloro-2-fluorophenyl)-5-(trifluoromethyl)isothiazol-4-yl)methoxy)-3,5-difluorophenyl)propanoic acid] | −0.71 |
| Cc1ccc(-c2nsc(C(F)(F)F)c2COc2c(F)cc(CC(C)C(=O)O)cc2F)c(F)c1 (stereo not shown) [Cpd 76, 3-(3,5-difluoro-4-[[3-(2-fluoro-4-methylphenyl)-5-(trifluoromethyl)-1,2-thiazol-4-yl]methoxy]phenyl)-2-methylpropanoic acid] | −0.8 |

same assay, conditions: Mus musculus, read-out: DIO Lowering Glucose AUC (−30 to 90) @ 10 mg/kg, heading: DIO Lowering Glucose AUC @ 10 mg/kg, 10 mg/kg dosed 30 min before PO glucose, change from vehicle

| Compound | change in vivo at 10 mg/kg |
| --- | --- |
| CCc1ccc(-c2cc(F)sc2COc2ccc(CCC(=O)O)c(C)c2C)cc1 [Cpd 1, 3-(4-[[3-(4-ethylphenyl)-5-fluorothiophen-2-yl]methoxy]-2,3-dimethylphenyl)propanoic acid] | -26% |
| Cc1c(CCC(=O)O)ccc(OCc2sc(F)cc2-c2ccc(Cl)cc2)c1C [Cpd 3, 3-(4-((3-(4-chlorophenyl)-5-fluorothiophen-2-yl)methoxy)-2,3-dimethylphenyl)propanoic acid] | -49% |

tested on: C57bl/6J mice; assay: GPR120 C57bl6 mouse IPGTT; assay type: in vivo; conditions: 10 mg/kg dosed 30 min before glucose IP 1.5 g/kg
Method: Male, C57bl/6J Mice were ordered in at 8 weeks of age from Jackson Labs. Individual mice weighed anywhere in the range of 25-30 grams on study day. The mice were fasted, with removal of food occurring at 7 am on the morning of the study. Animals were moved into the room at 10:00 am, to give them time to acclimate. Glucose (insulin syringes) was drawn up either the night before or the morning of the study. Glucose was dosed (IP) at 1.5 g/kg at 7.5 ml/kg (20% glucose straight TEKNOVA, 250 ml sterile bottle w/catalogue number G0525). Test compounds were kept spinning and were only drawn into the syringes prior to study commencement. Animals were bled via tail snip to determine basal glucose levels prior to dosing of treatments. An Ascensia BREEZE Blood Glucose Monitoring System by Bayer (using unique 10-test disks) was used for determining glucose levels. The bleeds started at approximately 12:45 pm and dosing started, at 1-minute intervals, immediately after. All groups were dosed 30 minutes prior to glucose administration at a dose volume of 10 ml/kg (the dose volume was calculated separately for each individual animal). Thirty minutes after the first dose animals were bled again for a second baseline, or T=0, and immediately dosed with glucose via an i.p. injection. The exact dose volume for glucose was also calculated separately for each individual animal. […]

| Compound | C57 IPGTT 10 mg/kg |
| --- | --- |
| 3-(4-[[3-(4-ethylphenyl)-5-(trifluoromethyl)-1,2-thiazol-4-yl]methoxy]-1-benzothiophen-7-yl)propanoic acid [Cpd 92] | −41 |

Source: US9067898B1, “Isothiazole derivatives as GPR120 agonists for the treatment of type II diabetes” (Janssen Pharmaceutica NV, priority 2014, dated 2015)
